# ± gives the expanded uncertainty stated by the source.
# Assay: xn = mol fraction of the nth substance listed
# Conditions: 101.3 kPa, Liquid; for viscosity: Capillary tube (Ostwald / Ubbelohde) method; for electrical conductivity: Shanghai Precision & Scientific Instrument Co., LTD (DDS-307)
SMILES,"viscosity (288.15 K, x2 = 0.2)","viscosity (288.15 K, x2 = 0.48)","electrical conductivity (288.15 K, x2 = 0.2)","electrical conductivity (288.15 K, x2 = 0.48)","viscosity (293.15 K, x2 = 0.2)","viscosity (293.15 K, x2 = 0.48)","electrical conductivity (293.15 K, x2 = 0.2)","electrical conductivity (293.15 K, x2 = 0.48)","viscosity (298.15 K, x2 = 0.2)","viscosity (298.15 K, x2 = 0.48)","electrical conductivity (298.15 K, x2 = 0.2)","electrical conductivity (298.15 K, x2 = 0.48)","viscosity (303.15 K, x2 = 0.2)","viscosity (303.15 K, x2 = 0.48)","electrical conductivity (303.15 K, x2 = 0.2)","electrical conductivity (303.15 K, x2 = 0.48)","viscosity (308.15 K, x2 = 0.2)","viscosity (308.15 K, x2 = 0.48)","electrical conductivity (308.15 K, x2 = 0.2)","electrical conductivity (308.15 K, x2 = 0.48)"
CCCCn1cc[n+](C)c1.F[P-](F)(F)(F)(F)F [1-butyl-3-methylimidazolium hexafluorophosphate] + CC(C)=O,165 ± 6.9 mPa·s,25.1 ± 0.9 mPa·s,0.00298 ± 0.00018 S/m,0.00925 ± 0.00056 S/m,127 ± 5.1 mPa·s,21.2 ± 0.7 mPa·s,0.00342 ± 0.00021 S/m,0.00965 ± 0.00058 S/m,100.2 ± 3.9 mPa·s,18.2 ± 0.6 mPa·s,0.00375 ± 0.00023 S/m,0.0102 ± 0.00061 S/m,79.8 ± 3 mPa·s,16 ± 0.5 mPa·s,0.00429 ± 0.00026 S/m,0.0106 ± 0.00064 S/m,64.1 ± 2.4 mPa·s,13.8 ± 0.5 mPa·s,0.00467 ± 0.00028 S/m,0.011 ± 0.00066 S/m
CCCCn1cc[n+](C)c1.F[P-](F)(F)(F)(F)F [1-butyl-3-methylimidazolium hexafluorophosphate] + CCO,200.6 ± 8.7 mPa·s,48 ± 1.7 mPa·s,0.00302 ± 0.00018 S/m,0.0068 ± 0.00041 S/m,148.1 ± 6.2 mPa·s,37.7 ± 1.3 mPa·s,0.00336 ± 0.0002 S/m,0.00733 ± 0.00044 S/m,113.7 ± 4.5 mPa·s,30.1 ± 1 mPa·s,0.0038 ± 0.00023 S/m,0.00798 ± 0.00048 S/m,88.4 ± 3.4 mPa·s,24.8 ± 0.8 mPa·s,0.0043 ± 0.00026 S/m,0.00863 ± 0.00052 S/m,71.5 ± 2.7 mPa·s,21 ± 0.7 mPa·s,0.00475 ± 0.00029 S/m,0.00933 ± 0.00056 S/m
CCCCn1cc[n+](C)c1.F[P-](F)(F)(F)(F)F [1-butyl-3-methylimidazolium hexafluorophosphate] + O,–,–,–,–,166.4 ± 9.4 mPa·s,–,0.0033 ± 0.0002 S/m,–,128.7 ± 5.2 mPa·s,–,0.00372 ± 0.00022 S/m,–,99.2 ± 3.9 mPa·s,–,0.00429 ± 0.00026 S/m,–,78.2 ± 3.4 mPa·s,–,0.00478 ± 0.00029 S/m,–
